Measured values taken from ChEMBL document CHEMBL5344429, “1,3-Substituted β-Carboline Derivatives as Potent Chemotherapy for the Treatment of Cystic Echinococcosis” (J Med Chem, 2023).
The source made the active and inactive calls. The rule behind the calls is not given here.

How the values were obtained:
[1] = system: Echinococcus granulosus; experiment: Parasiticidal activity against Echinococcus granulosus protoscolices […] by eosin exclusion test; type: functional; settings: 1152 h, time 48 day
[2] = system: Echinococcus granulosus; experiment: Parasiticidal activity against Echinococcus granulosus protoscolices assessed as death rate at 1 uM incubated for 48 hrs by eosin exclusion test; type: functional
[3] = system: Echinococcus granulosus; experiment: Parasiticidal activity against Echinococcus granulosus protoscolices assessed as death rate at 5 uM incubated for 4 days by eosin exclusion test; type: functional; settings: time 4 day
[4] = system: Echinococcus granulosus; experiment: Parasiticidal activity against Echinococcus granulosus protoscolices assessed as lethal effect incubated for 4 days by eosin exclusion test; type: functional, organism-based; settings: dose 0.5-5 µM, time 4.0 day
[5] = system: Echinococcus granulosus; experiment: Parasiticidal activity against Echinococcus granulosus protoscolices assessed as death rate at 0.5 uM incubated for 4 days by eosin exclusion test; type: functional; settings: time 4 day
[6] = system: Echinococcus granulosus; experiment: Parasiticidal activity against Echinococcus granulosus protoscolices assessed as increase in death rate at 5 uM incubated for 4 days by darker staining-based light microscopy; type: functional, organism-based; settings: time 4.0 day
[7] = system: Echinococcus granulosus; experiment: Parasiticidal activity against Echinococcus granulosus protoscolices assessed as appearance of body shrank at 5 uM incubated for 4 days by scanning electron microscopy analysis; type: functional, organism-based; settings: time 4.0 day
[8] = system: Echinococcus granulosus; experiment: Parasiticidal activity against Echinococcus granulosus protoscolices assessed as appearance of rostellum hooks fall off at 5 uM incubated for 4 days by scanning electron microscopy analysis; type: functional, organism-based; settings: time 4.0 day
[9] = system: Echinococcus granulosus; experiment: Parasiticidal activity against Echinococcus granulosus protoscolices assessed as appearance of blurred marginal structure at 5 uM incubated for 4 days by scanning electron microscopy analysis; type: functional, organism-based; settings: time 4.0 day
[10] = system: Echinococcus granulosus; experiment: Parasiticidal activity against Echinococcus granulosus protoscolices assessed as partial vacuolar change at 5 uM incubated for 4 days by scanning electron microscopy analysis; type: functional, organism-based; settings: time 4.0 day
[11] = system: Echinococcus granulosus; experiment: Parasiticidal activity against Echinococcus granulosus protoscolices assessed as degeneration of outer skin at 5 uM incubated for 4 days by scanning electron microscopy; type: functional, organism-based; settings: time 4.0 day
[12] = system: Echinococcus granulosus; experiment: Parasiticidal activity against Echinococcus granulosus protoscolices assessed as loss of hooks at 5 uM incubated for 4 days by scanning electron microscopy; type: functional, organism-based; settings: time 4.0 day
[13] = system: Echinococcus granulosus; experiment: Parasiticidal activity against Echinococcus granulosus protoscolices assessed as loss of suckers at 5 uM incubated for 4 days by scanning electron microscopy; type: functional; settings: time 4.0 day
[14] = system: Echinococcus granulosus; experiment: Parasiticidal activity against Echinococcus granulosus assessed as collapse of germinal layers at 100 uM incubated for 4 days by scanning electron microscopy; type: functional, organism-based; settings: time 4.0 day
[15] = system: Echinococcus granulosus; experiment: Parasiticidal activity against Echinococcus granulosus cyst assessed as seperation from cuticle at 100 uM incubated for 4 days by scanning electron microscopy; type: functional, organism-based; settings: time 4.0 day
[16] = system: Echinococcus granulosus; experiment: Parasiticidal activity against Echinococcus granulosus cyst assessed as formation of dense aggregates at 100 uM incubated for 4 days by scanning electron microscopy; type: functional, organism-based; settings: time 4.0 day
[17] = Cmax in Wistar rat at 5 mg/kg, iv by HPLC analysis; type: ADME, organism-based; set-up: dose 5 mg/kg, route iv; settings: in vivo
[18] = AUC (0 to infinity) in Wistar rat at 5 mg/kg, iv by HPLC analysis; type: ADME, organism-based; set-up: dose 5 mg/kg, route iv; settings: in vivo
[19] = Oral bioavailability in Wistar rat at 50 mg/kg, […] by HPLC analysis; type: ADME, organism-based; settings: in vivo
[20] = system: Echinococcus granulosus; experiment: Parasiticidal activity against Echinococcus granulosus protoscolices assessed as lethal effect at 0.5 to 5 uM by eosin exclusion test; type: functional, organism-based; settings: dose 0.5-5 µM, TDE = time-dependent effect
[21] = system: Echinococcus granulosus; experiment: Parasiticidal activity against Echinococcus granulosus protoscolices assessed as change in ultrastructure at 5 uM incubated for 4 days by scanning electron microscopy; type: functional, organism-based; settings: time 4.0 day

COc1cccc(-c2nc(NC(=O)c3ccc(CN4CCCN(C)CC4)cc3)cc3c2[nH]c2ccccc23)c1
LC50 [1]: 17.9 µM

COc1ccc(-c2nc(NC(=O)c3ccc(CN4CCC(N5CCCCC5)CC4)cc3)cc3c2[nH]c2ccccc23)cc1OC
Activity [2]: 56.27%
LC50 [1]: 3.59 µM
Activity [3]: >90%
Activity [4]: Dose-Dependent Effect
Activity [5]: >50%
Activity [6]: Active
Activity [7]: Active
Activity [8]: Active
Activity [9]: Active
Activity [10]: Active
Activity [11]: Active
Activity [12]: Active
Activity [13]: Active
Activity [14]: Active
Activity [15]: Active
Activity [16]: Active
Cmax [17]: 1400 ng/mL
AUC(0-inf) [18]: 1770 ng·h/mL
bioavailability [19]: 26.8%
Activity [20]: Tde
Activity [21]: Active

COc1ccccc1-c1nc(C(=O)Nc2ccc(CN3CCC(N4CCCCC4)CC3)cc2)cc2c1[nH]c1ccccc12
Activity [2]: Active
LC50 [1]: 13.4 µM

COc1cc(OC)cc(-c2nc(C(=O)Nc3ccc(CN4CCC(N5CCCCC5)CC4)cc3)cc3c2[nH]c2ccccc23)c1
Activity [2]: Active
LC50 [1]: 7.16 µM

COc1cc(-c2nc(NC(=O)c3ccc(CN4CCCN(C)CC4)cc3)cc3c2[nH]c2ccccc23)cc(OC)c1OC
Activity [2]: Active
LC50 [1]: 16 µM

COc1ccc(-c2nc(C(=O)Nc3ccc(CN4CCC(N5CCCCC5)CC4)cc3)cc3c2[nH]c2ccccc23)cc1OC
Activity [2]: Active
LC50 [1]: 6.49 µM

COc1cccc(-c2nc(C(=O)Nc3ccc(CN4CCC(N5CCCCC5)CC4)cc3)cc3c2[nH]c2ccccc23)c1OC
Activity [2]: Active
LC50 [1]: 5.8 µM

Cc1ccc(-c2nc(NC(=O)c3ccc(CN4CCC(N5CCCCC5)CC4)cc3)cc3c2[nH]c2ccccc23)cc1
Activity [2]: Active
LC50 [1]: 12.5 µM
